Numbered stars: 1 amine (or outer) side, 2 acyl side, 3 side chain; on linkers, the order of the positions; unused ones are H or OH. Bridge positions count the residues as written; N and C are the ends. Square brackets hold non-standard residues; d marks the D form. Peptide text beside a SMILES is read from it. X47 = O=C([C@H](Cc1ccc(-c2cccc(OC(F)(F)F)c2)cc1)N[*:1])[*:2]; Phe(4-(4-F-Ph)) = N[C@@H](Cc1ccc(-c2ccc(F)cc2)cc1)C(=O)O; Bip = N[C@@H](Cc1ccc(-c2ccccc2)cc1)C(=O)O; Phe(3-OMe) = COc1cccc(C[C@H](N)C(=O)O)c1; Phe(3-Me) = Cc1cccc(C[C@H](N)C(=O)O)c1; Cit = NC(=O)NCCC[C@H](N)C(=O)O; NMeA = CN[C@@H](C)C(=O)O; Orn = NCCC[C@H](N)C(=O)O; Dab = NCC[C@H](N)C(=O)O
Biological target: T1, PE-labeled human PD-L1-Ig binding to Jurkat cell line over-expressing human PD-1 (Jurkat-PD-1) (Homo sapiens, UniProt Q15116)
T1 construct: expressed in transfected cells; host or cells: Jurkat
Assay: Jurkat-PD-1 Cell Binding High-Content Screening Assay (CBA): Method 1
Settings: Jurkat-hPD-1 cells, PE-labeled PD-L1-Ig 20 nM final; read-out: Jurkat HPDL1 PD1 IC50 (uM) (Method 1)

T1 sequence (Q15116 25-288): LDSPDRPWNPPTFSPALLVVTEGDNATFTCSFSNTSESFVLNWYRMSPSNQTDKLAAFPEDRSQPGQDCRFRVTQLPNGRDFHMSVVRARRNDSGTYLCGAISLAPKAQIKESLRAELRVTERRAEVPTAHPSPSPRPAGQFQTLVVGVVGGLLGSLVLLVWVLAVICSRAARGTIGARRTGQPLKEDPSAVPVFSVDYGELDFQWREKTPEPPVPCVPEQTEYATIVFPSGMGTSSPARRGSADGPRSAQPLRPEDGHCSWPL

IC50 [µM]	SMILES
0.04	CC(C)C[C@@H]1NC(=O)[C@H](CCCNC(=N)N)NC(=O)[C@@H](CC(C)C)NC(=O)[C@H](C)N(C)C(=O)[C@H](CCCNC(N)=O)NC(=O)[C@H](Cc2ccc(-c3ccccc3)cc2)NC(=O)[C@H](C(C)C)NC(=O)[C@H](Cc2c[nH]c3ccccc23)NC(=O)[C@H](CC(=O)O)NC(=O)[C@H](Cc2ccc(O)cc2)NC(=O)[C@H](CC(N)=O)NC(=O)CSC[C@@H](C(=O)N[C@@H](C)C(N)=O)NC(=O)[C@H](CO)NC(=O)[C@H](C(C)C)NC1=O [Compound 1227] ({CH2CO}-NYDWV[Bip][Cit][NMeA][dL]RLVSCA-NH2; thioether N-14)
0.9	CC(C)C[C@@H]1NC(=O)[C@H](CCN)NC(=O)[C@@H](CC(C)C)NC(=O)[C@H](C)N(C)C(=O)[C@H](CCCNC(=N)N)NC(=O)[C@H](Cc2ccc(-c3cccc(OC(F)(F)F)c3)cc2)NC(=O)[C@H](C(C)C)NC(=O)[C@H](Cc2c[nH]c3ccccc23)NC(=O)[C@H](CC(=O)O)NC(=O)[C@H](Cc2ccc(O)cc2)NC(=O)[C@H](CC(N)=O)NC(=O)CSC[C@@H](C(=O)N[C@@H](C)C(N)=O)NC(=O)[C@H]([C@@H](C)O)NC(=O)[C@H](C(C)C)NC1=O [Compound 1228] ({CH2CO}-NYDWV[X47]R[NMeA][dL][Dab]LVTCA-NH2; thioether N-14)
0.13	CC(C)C[C@@H]1NC(=O)[C@H](CCN)NC(=O)[C@@H](CC(C)C)NC(=O)[C@H](C)N(C)C(=O)[C@H](CCCNC(=N)N)NC(=O)[C@H](Cc2ccc(-c3ccc(F)cc3)cc2)NC(=O)[C@H](C(C)C)NC(=O)[C@H](Cc2c[nH]c3ccccc23)NC(=O)[C@H](CC(=O)O)NC(=O)[C@H](Cc2ccc(O)cc2)NC(=O)[C@H](CC(N)=O)NC(=O)CSC[C@@H](C(=O)N[C@@H](C)C(N)=O)NC(=O)[C@H]([C@@H](C)O)NC(=O)[C@H](C(C)C)NC1=O [Compound 1229] ({CH2CO}-NYDWV[Phe(4-(4-F-Ph))]R[NMeA][dL][Dab]LVTCA-NH2; thioether N-14)
0.01	Cc1cccc(C[C@@H]2NC(=O)[C@H](CC(=O)O)NC(=O)[C@H](Cc3ccc(O)cc3)NC(=O)[C@H](CC(N)=O)NC(=O)CSC[C@@H](C(=O)N[C@@H](C)C(N)=O)NC(=O)[C@H]([C@@H](C)O)NC(=O)[C@H](C(C)C)NC(=O)[C@H](CC(C)C)NC(=O)[C@H](CCN)NC(=O)[C@@H](CC(C)C)NC(=O)[C@H](C)N(C)C(=O)[C@H](CCCNC(N)=O)NC(=O)[C@H](Cc3ccc(-c4ccccc4)cc3)NC(=O)[C@H](C(C)C)NC2=O)c1 [Compound 1230] ({CH2CO}-NYD[Phe(3-Me)]V[Bip][Cit][NMeA][dL][Dab]LVTCA-NH2; thioether N-14)
0.04	COc1cccc(C[C@@H]2NC(=O)[C@H](CC(=O)O)NC(=O)[C@H](Cc3ccc(O)cc3)NC(=O)[C@H](CC(N)=O)NC(=O)CSC[C@@H](C(=O)N[C@@H](C)C(N)=O)NC(=O)[C@H]([C@@H](C)O)NC(=O)[C@H](C(C)C)NC(=O)[C@H](CC(C)C)NC(=O)[C@H](CCN)NC(=O)[C@@H](CC(C)C)NC(=O)[C@H](C)N(C)C(=O)[C@H](CCCNC(N)=O)NC(=O)[C@H](Cc3ccc(-c4ccccc4)cc3)NC(=O)[C@H](C(C)C)NC2=O)c1 [Compound 1231] ({CH2CO}-NYD[Phe(3-OMe)]V[Bip][Cit][NMeA][dL][Dab]LVTCA-NH2; thioether N-14)
0.12	CC(C)C[C@@H]1NC(=O)[C@H](CCN)NC(=O)[C@@H](CC(C)C)NC(=O)[C@H](C)N(C)C(=O)[C@H](CCCNC(N)=O)NC(=O)[C@H](Cc2ccc(-c3ccccc3)cc2)NC(=O)[C@H](C(C)C)NC(=O)[C@H](Cc2c[nH]c3ccccc23)NC(=O)[C@H](CC(=O)O)NC(=O)[C@H](Cc2ccc(O)cc2)NC(=O)[C@H](CC(N)=O)NC(=O)CSC[C@@H](C(=O)N[C@@H](C)C(N)=O)NC(=O)[C@H](CCCN)NC(=O)[C@H](C(C)C)NC1=O [Compound 1232] ({CH2CO}-NYDWV[Bip][Cit][NMeA][dL][Dab]LV[Orn]CA-NH2; thioether N-14)
0.05	CC(C)C[C@@H]1NC(=O)[C@H](CCN)NC(=O)[C@@H](CC(C)C)NC(=O)[C@H](C)N(C)C(=O)[C@H](CCCNC(N)=O)NC(=O)[C@H](Cc2ccc(-c3ccccc3)cc2)NC(=O)[C@H](C(C)C)NC(=O)[C@H](Cc2c[nH]c3ccccc23)NC(=O)[C@H](CC(=O)O)NC(=O)[C@H](Cc2ccc(O)cc2)NC(=O)[C@H](CC(N)=O)NC(=O)CSC[C@@H](C(=O)N[C@@H](CCC(=O)O)C(N)=O)NC(=O)[C@H](CO)NC(=O)[C@H](C(C)C)NC1=O [Compound 1233] ({CH2CO}-NYDWV[Bip][Cit][NMeA][dL][Dab]LVSCE-NH2; thioether N-14)
0.03	CC(C)C[C@@H]1NC(=O)[C@H](CCCN)NC(=O)[C@@H](CC(C)C)NC(=O)[C@H](C)N(C)C(=O)[C@H](CCCNC(N)=O)NC(=O)[C@H](Cc2ccc(-c3ccccc3)cc2)NC(=O)[C@H](C(C)C)NC(=O)[C@H](Cc2c[nH]c3ccccc23)NC(=O)[C@H](CC(=O)O)NC(=O)[C@H](Cc2ccc(O)cc2)NC(=O)[C@H](CC(N)=O)NC(=O)CSC[C@@H](C(=O)N[C@@H](C)C(N)=O)NC(=O)[C@H]([C@@H](C)O)NC(=O)[C@H](C(C)C)NC1=O [Compound 1234] ({CH2CO}-NYDWV[Bip][Cit][NMeA][dL][Orn]LVTCA-NH2; thioether N-14)
0.06	CC(C)C[C@@H]1NC(=O)[C@H](CCCN)NC(=O)[C@@H](CC(C)C)NC(=O)[C@H](C)N(C)C(=O)[C@H](CCCNC(N)=O)NC(=O)[C@H](Cc2ccc(-c3ccccc3)cc2)NC(=O)[C@H](C(C)C)NC(=O)[C@H](Cc2c[nH]c3ccccc23)NC(=O)[C@H](CC(=O)O)NC(=O)[C@H](Cc2ccc(O)cc2)NC(=O)[C@H](CC(N)=O)NC(=O)CSC[C@@H](C(=O)NCC(N)=O)NC(=O)[C@H]([C@@H](C)O)NC(=O)[C@H](C(C)C)NC1=O [Compound 1235] ({CH2CO}-NYDWV[Bip][Cit][NMeA][dL][Orn]LVTCG-NH2; thioether N-14)
0.11	CC(C)C[C@@H]1NC(=O)[C@H](CCCNC(=N)N)NC(=O)[C@@H](CC(C)C)NC(=O)[C@H](C)N(C)C(=O)[C@H](CCCNC(N)=O)NC(=O)[C@H](Cc2ccc(-c3ccccc3)cc2)NC(=O)[C@H](C(C)C)NC(=O)[C@H](Cc2c[nH]c3ccccc23)NC(=O)[C@H](CC(=O)O)NC(=O)[C@H](Cc2ccc(O)cc2)NC(=O)[C@H](CC(N)=O)NC(=O)CSC[C@@H](C(=O)N[C@@H](CCC(=O)O)C(N)=O)NC(=O)[C@H](CO)NC(=O)[C@H](C(C)C)NC1=O [Compound 1236] ({CH2CO}-NYDWV[Bip][Cit][NMeA][dL]RLVSCE-NH2; thioether N-14)
0.03	CC(C)C[C@@H]1NC(=O)[C@H](CCN)NC(=O)[C@@H](CC(C)C)NC(=O)[C@H](C)N(C)C(=O)[C@H](CCCNC(N)=O)NC(=O)[C@H](Cc2ccc(-c3ccccc3)cc2)NC(=O)[C@H](C(C)C)NC(=O)[C@H](Cc2c[nH]c3ccccc23)NC(=O)[C@H](CC(=O)O)NC(=O)[C@H](Cc2ccc(O)cc2)NC(=O)[C@H](CC(N)=O)NC(=O)CSC[C@@H](C(=O)N[C@@H](C)C(N)=O)NC(=O)[C@H](CO)NC(=O)[C@H](C(C)C)NC1=O [Compound 1237] ({CH2CO}-NYDWV[Bip][Cit][NMeA][dL][Dab]LVSCA-NH2; thioether N-14)
